PMC12749166, “Fragment-based drug design of a bacterial kinase inhibitor capable of increasing the antibiotic sensitivity of clinical isolates” (Communications Chemistry, 2025)

Legend:
APH(2”)-IVa [1] = molecular target: T1, APH(2”)-IVa (Enterococcus casseliflavus, UniProt O68183); test: IC50 by HPLC quantification of ATP and ADP; format: biochemical, E. casseliflavus
Target sequence in this assay (O68183 entry or part of it): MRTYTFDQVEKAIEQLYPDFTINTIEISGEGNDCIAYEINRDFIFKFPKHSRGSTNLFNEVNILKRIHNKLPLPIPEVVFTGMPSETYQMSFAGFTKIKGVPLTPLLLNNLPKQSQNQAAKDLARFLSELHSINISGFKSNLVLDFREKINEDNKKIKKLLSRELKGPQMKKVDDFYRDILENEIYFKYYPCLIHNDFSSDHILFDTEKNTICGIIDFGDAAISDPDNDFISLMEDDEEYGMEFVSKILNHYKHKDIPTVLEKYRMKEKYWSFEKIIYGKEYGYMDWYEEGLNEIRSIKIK
Method: (§2) The reaction mixture consists of the APH and its substrates, as well as a potential inhibitor for inhibition measurements. Reactions were initiated by adding the ATP solution supplemented or not with the inhibitor, in a thermostated beaker containing the APH. […] The reaction was stopped at several time points by adding 80 µL of the enzymatic reaction mixture from the beaker to 40 µL of 10% perchloric acid (PCA) in an Eppendorf tube. Samples were then centrifuged for 30 min at 12750 rpm and 8 °C. 100 µL of the supernatant was then mixed with 900 µL of mobile phase (250 mM NaH2PO4, 50% Acetonitrile, pH 5.5) supplemented with KOH to readjust the pH to 5.5 before injection. […] 100 µL of samples were injected on a SAX PartiSphere column (AIT France) at a flow rate of 1 mL min^−1. ATP and ADP peaks were integrated, and the area under the peaks was calculated using OpenLab CDS software (v. ChemStation, Agilent). The kss values were then measured using linear regression in GraFit software and IC50 determined by fitting with a hyperbola the percentage of inhibition as a function of inhibitor concentration. The standard error of the IC50 value was determined in the GraFit software based on the fitting of the experimental data.

APH(2”)-IVa [2] = molecular target: T1, APH(2”)-IVa; test: biochemical; format: binding
Method: (§1) ITC experiments were performed on three different machines: a MicroCal VP-ITC (GE Healthcare), a MicroCal PEAQ-ITC (Malvern), or a MicroCal iTC200 (Malvern). The architecture and principles are similar for the three different systems. The experiments were carried out in Buffer HEPES at 25 °C. Titrations consisted of twenty injections of 1.5 µL inhibitors, every 120 seconds, into the measuring cell using the injection syringe rotating at 750 rpm. The data were analyzed using the MicroCal PEAQ-ITC software (v. 1.52, Malvern) using the single-site binding model to fit the raw data. The standard error of the Kd value was determined from measurements made on distinct samples (n indicated in the text).
Target sequence in this assay (O68183 1-301): as the sequence (O68183 entry or part of it) above

APH(3’)-IIa [3] = molecular target: T2, APH(3’)-IIa (Klebsiella pneumoniae, UniProt P00552); test: Isothermal Titration Calorimetry; format: binding, K. pneumoniae
T2 construct: His-tag (inferred from HisTrap purification); made in house; host or cells: E. coli BL21
Method: as §1

APH(3’)-IIb [4] = molecular target: T3, APH(3’)-IIb (Pseudomonas aeruginosa, UniProt Q9HWR2, M95L); test: Isothermal Titration Calorimetry; format: binding, P. aeruginosa
T3 sequence (Q9HWR2 1-268 M95L): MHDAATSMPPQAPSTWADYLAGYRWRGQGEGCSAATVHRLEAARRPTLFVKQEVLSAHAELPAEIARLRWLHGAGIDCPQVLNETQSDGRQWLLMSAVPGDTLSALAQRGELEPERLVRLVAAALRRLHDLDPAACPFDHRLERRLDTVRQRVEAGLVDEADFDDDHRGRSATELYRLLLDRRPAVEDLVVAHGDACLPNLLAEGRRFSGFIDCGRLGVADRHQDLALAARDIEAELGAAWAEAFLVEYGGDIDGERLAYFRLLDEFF
Method: as §1

APH(3’)-Ic = format: biochemical, A. baumannii; conditions: 100 µM of 83
APH(3’)-IIa [5] = molecular target: T2, APH(3’)-IIa; test: biochemical; set-up: species or system K. pneumoniae
P. aeruginosa C0307 = test: Bacterial growth kinetics over 24 h; format: cell-based
S. aureus C0032 = test: Bacterial growth kinetics over 24 h; format: cell-based; conditions: for Increase of latency: 500 µM 83
APH(2”)-IVa [6] = molecular target: T1, APH(2”)-IVa; test: biochemical
Target sequence in this assay (O68183 1-301): as the sequence (O68183 entry or part of it) above

APH(3’)-IIb [7] = molecular target: T3, APH(3’)-IIb; test: biochemical
Method: as §2

APH(3’)-IIb [8] = molecular target: T3, APH(3’)-IIb; test: biochemical; remark: listed apart in the source
Method: Plates were placed in a Clariostar plate reader. […] The initial rate constants (kss) were then measured using a linear regression of the absorbance as a function of time using GraFit software (v. 7.0.3, Erithacus software). Inhibition constants were determined by global fittings of the dependences of kss as a function of ATP and inhibitor concentrations, using a competitive inhibition equation and GraFit software. The standard error of the Ki value was determined in the GraFit software based on the global fitting of four experimental series.

[9] = up to 500 µM (109 µg mL^−1), no kanamycin A, 24 h

T2 sequence (P00552 whole entry): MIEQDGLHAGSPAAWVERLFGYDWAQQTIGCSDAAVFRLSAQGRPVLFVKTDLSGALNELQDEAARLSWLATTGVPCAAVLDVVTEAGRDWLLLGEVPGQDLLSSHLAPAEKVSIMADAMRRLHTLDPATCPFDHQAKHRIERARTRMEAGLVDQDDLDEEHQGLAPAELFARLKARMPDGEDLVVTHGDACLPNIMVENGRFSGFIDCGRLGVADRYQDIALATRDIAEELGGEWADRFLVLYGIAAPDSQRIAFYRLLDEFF

Which IC50 (APH(2”)-IVa [1]) does the source give for `Clc1cnc2[nH]ccc2c1-c1ccn[nH]1` [Compound 83] here?
Its IC50 is 840 ± 130 nM.

And the Kd (APH(2”)-IVa [2])?
The Kd was 1060 ± 170 nM.

What about the ΔH (APH(2”)-IVa [2]; ITC) of the same molecule?
Its ΔH is -11.0 kcal/mol.

What about the Kd (APH(3’)-IIa [3]) of the same molecule?
Its Kd is 1250 nM.

What about the ΔH (APH(3’)-IIa [3]; ITC) of the same molecule?
The ΔH was -13.1 kcal/mol.

What about the Kd (APH(3’)-IIb [4]) of the same molecule?
Its Kd is 270 ± 50 nM.

What about the ΔH (APH(3’)-IIb [4]; ITC) of the same molecule?
Its ΔH is -13.6 kcal/mol.

And the “Inhibition (%)” value (APH(3’)-Ic)?
Its value is 35%.

What about the inhibition at 100 µM (APH(3’)-IIa [5]) of the same molecule?
The inhibition at 100 µM was 76%.

What about the “Delay of the onset of growth” value (P. aeruginosa C0307; 8 µg mL^−1 kanamycin A, 83 at 500 µM) of the same molecule?
Its value is “around 6 h”.

And the Extension of latency (P. aeruginosa C0307; 16 µg mL^−1 kanamycin A, 500 µM 83)?
Its Extension of latency is 12 h.

What about the Growth (P. aeruginosa C0307; 32 µg mL^−1 kanamycin A, 500 µM 83, 24 h of incubation) of the same molecule?
Its Growth is “growth did not begin after 24 h of incubation”.

And the “Toxicity of 83 alone on bacteria” value (P. aeruginosa C0307; [9])?
The value was “no toxicity”.

What about the Increase of latency (S. aureus C0032; 1024 µg mL^−1 kanamycin A) of the same molecule?
Its Increase of latency is 14 h.

What about the Increase of latency (S. aureus C0032; 2048 µg mL^−1 kanamycin A) of the same molecule?
Its Increase of latency is 18 h.

And the Growth (S. aureus C0032; 4096 µg mL^−1 kanamycin A, 250 and 500 µM 83, after 24 h)?
Its Growth is “no growth was detected”.

What about the “Effect on growth kinetics” value (S. aureus C0032; 256 and 512 µg mL^−1 kanamycin A, 500 µM 83, absence of imipenem) of the same molecule?
The value was “slowed growth kinetics”.

What about the “Toxicity of 83 alone on bacteria” value (S. aureus C0032; [9]) of the same molecule?
Its value is “no toxicity”.

What about the inhibition at 100 µM (APH(2”)-IVa [6]; 100 µM of 83) of the same molecule?
Its inhibition at 100 µM is 95%.

And the Ki (APH(2”)-IVa [6]; Ki (µM), inhibition constant, ATP-competitive, 0-2 mM MgATP, 100 µM kanamycin A, global fitting)?
The Ki was 0.39 ± 0.04 µM.

What about the IC50 (APH(3’)-IIb [7]) of the same molecule?
The IC50 was 1230 ± 40 nM.

What about the inhibition at 100 µM (APH(3’)-IIb [8]) of the same molecule?
The inhibition at 100 µM was 91%.
